Where two headings read alike, the source gives them in different places.
Experiments:
Wild-type RET kinase = Wild-type RET kinase (Homo sapiens, UniProt P07949); test: HTRF method for testing the inhibitory activity of compounds against RET; assay type: biochemical
Ba/F3-KIF5B-RET cell = biological target: T1, Ba/F3-KIF5B-RET cell (Homo sapiens, UniProt P07949); test: CellTiter-Glo luminescence assay, inhibitory activity against Ba/F3-KIF5B-RET cell; assay type: cell-based
T1 construct: fused on or other part: P33176 (Kinesin-1 heavy chain)
Excerpt: (C) In Vitro Screening Experiment - CellTiter-Glo Luminescence Assay for Testing The inhibitory activity of compounds against Ba/F3-KIF5B-RET cell
• 1. The mammalian cell expression vector containing human KIF5B-RET cDNA was introduced into Ba/F3 cells using the Neon® transfection system method, and the surviving clones screened by puromycin were subjected to cell growth inhibitory function experiments and Western blotting to verify cell lines with stable and high expression of RET. • 2. Cells were cultured in RPMI 1640 medium containing 10% fetal bovine serum, 1% penicillin-streptomycin, and 2 µg/mL puromycin, and then placed in a 37° C., 5% carbon dioxide cell incubator. • 3. The test compound (5 mM stock) was diluted 2.5 folds to […] with 100% dimethyl sulfoxide; and the compound was diluted into 10 concentrations at an equal ratio of 1:3 in a 384-well dilution plate. • 4. 0.2 µL of the serially diluted compound was added to a 384-well cell culture plate (Corning, 3570) using an Echo 550 pipetting system, 2 replicate wells for each concentration, and the final concentration of dimethyl sulfoxide was 0.5% (v/v). The gradient concentrations of the test compound were 5000, 1666.7, 555.5, 185.18, 61.72, 20.57, 6.858, 2.286, 0.764, 0.254 nM. • 5. 40 µL of Ba/F3-KIF5B-RET cell suspension containing 800 cells was added to each well, and incubated for 72 h in a 5% CO2 cell incubator. • 6. 20 µL of Cell Titer-Glo reagent was added to each well of the cell culture plate, and the culture system was then shaken and mixed thoroughly for 2 min to lyse the cells, the cells were then incubated at room temperature for 30 min, and the […] signal values were then read with an Envision 2104 microplate reader. • 7. By fitting the data with XLFit 5.0 based on the parameters formula, the IC50 value was calculated as: • [formula]

[1] = HTRF, read-out: Wild-type RET kinase
[2] = 72 h, read-out: Ba/F3-KIF5B-RET cell activity

T1 sequence (P07949 whole entry, stated change not applied, the tested form may be a part): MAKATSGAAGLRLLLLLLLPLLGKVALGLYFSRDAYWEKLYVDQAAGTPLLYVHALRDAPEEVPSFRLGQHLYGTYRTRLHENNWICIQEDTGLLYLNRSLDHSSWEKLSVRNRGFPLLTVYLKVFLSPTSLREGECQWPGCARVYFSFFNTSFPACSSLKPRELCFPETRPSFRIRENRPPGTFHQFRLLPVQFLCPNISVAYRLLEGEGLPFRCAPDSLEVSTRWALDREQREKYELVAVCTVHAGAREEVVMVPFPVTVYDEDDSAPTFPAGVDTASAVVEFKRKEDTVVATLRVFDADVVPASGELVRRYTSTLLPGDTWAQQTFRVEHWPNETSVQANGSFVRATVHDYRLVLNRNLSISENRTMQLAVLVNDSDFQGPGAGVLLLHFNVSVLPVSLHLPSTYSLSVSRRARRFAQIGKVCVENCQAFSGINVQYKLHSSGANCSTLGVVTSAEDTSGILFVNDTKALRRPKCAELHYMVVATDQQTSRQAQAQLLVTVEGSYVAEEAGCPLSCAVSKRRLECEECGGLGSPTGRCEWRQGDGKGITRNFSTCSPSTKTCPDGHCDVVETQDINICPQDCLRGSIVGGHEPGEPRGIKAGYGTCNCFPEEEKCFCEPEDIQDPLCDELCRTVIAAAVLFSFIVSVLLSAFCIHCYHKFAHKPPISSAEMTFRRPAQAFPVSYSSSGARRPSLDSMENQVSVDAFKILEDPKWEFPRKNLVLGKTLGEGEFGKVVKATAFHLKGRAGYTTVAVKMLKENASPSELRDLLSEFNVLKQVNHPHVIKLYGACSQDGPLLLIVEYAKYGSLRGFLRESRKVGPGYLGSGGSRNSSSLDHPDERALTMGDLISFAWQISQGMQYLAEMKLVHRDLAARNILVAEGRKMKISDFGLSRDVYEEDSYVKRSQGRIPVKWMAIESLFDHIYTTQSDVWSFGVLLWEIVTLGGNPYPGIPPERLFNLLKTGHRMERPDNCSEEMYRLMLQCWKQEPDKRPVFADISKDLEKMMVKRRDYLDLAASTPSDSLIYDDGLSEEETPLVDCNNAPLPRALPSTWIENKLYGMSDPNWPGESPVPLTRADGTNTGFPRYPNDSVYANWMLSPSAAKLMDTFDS
Wild-type RET kinase, sequence (P07949 29-1114): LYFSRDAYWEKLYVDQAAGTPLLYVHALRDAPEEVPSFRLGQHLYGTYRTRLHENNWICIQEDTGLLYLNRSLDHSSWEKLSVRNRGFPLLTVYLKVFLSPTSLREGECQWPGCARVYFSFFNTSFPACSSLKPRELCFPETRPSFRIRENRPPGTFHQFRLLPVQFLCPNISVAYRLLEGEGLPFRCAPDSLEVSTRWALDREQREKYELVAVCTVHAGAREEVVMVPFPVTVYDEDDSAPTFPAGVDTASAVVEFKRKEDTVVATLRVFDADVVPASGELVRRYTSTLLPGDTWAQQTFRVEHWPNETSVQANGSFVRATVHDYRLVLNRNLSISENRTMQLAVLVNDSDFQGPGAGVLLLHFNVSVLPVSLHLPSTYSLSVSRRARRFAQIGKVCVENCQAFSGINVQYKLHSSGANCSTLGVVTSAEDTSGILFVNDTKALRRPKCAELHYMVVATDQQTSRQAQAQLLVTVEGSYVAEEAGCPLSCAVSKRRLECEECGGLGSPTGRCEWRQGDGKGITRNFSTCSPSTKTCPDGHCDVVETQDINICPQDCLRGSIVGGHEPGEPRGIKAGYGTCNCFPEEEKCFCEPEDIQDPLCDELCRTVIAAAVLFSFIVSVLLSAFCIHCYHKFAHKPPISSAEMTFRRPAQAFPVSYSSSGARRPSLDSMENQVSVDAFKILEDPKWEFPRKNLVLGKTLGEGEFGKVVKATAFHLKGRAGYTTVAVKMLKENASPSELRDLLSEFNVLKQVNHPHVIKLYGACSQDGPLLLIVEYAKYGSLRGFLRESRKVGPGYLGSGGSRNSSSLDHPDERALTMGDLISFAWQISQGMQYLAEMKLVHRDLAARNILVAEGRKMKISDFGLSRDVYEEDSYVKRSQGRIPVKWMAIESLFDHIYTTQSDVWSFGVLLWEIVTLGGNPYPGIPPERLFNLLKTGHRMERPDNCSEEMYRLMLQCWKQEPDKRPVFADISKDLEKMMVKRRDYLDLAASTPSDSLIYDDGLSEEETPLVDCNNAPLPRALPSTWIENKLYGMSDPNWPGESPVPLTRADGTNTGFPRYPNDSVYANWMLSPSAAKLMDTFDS

| Compound | IC50 (Wild-type RET kinase; [1]) | GI50 (Ba/F3-KIF5B-RET cell; [2]) | other results |
| --- | --- | --- | --- |
| CCNC(=O)Oc1cc(-c2cnc(N3CC4CC(C3)N4Cc3ccc(OC)nc3)cn2)c2c(C#N)cnn2c1 [Compound 42, 3-cyano-4-(5-(6-((6-methoxypyridin-3-yl)methyl)-3,6-diazabicyclo[3.1.1]heptan-3-yl)pyrazin-2-yl)pyrazolo[1,5-a]pyridin-6-ylethylcarbamate] | – | – | IC50 (Wild-type RET kinase): 9.2 nM |
| COc1ccc(CN2C3CC2CN(c2ccc(-c4cc(OCC(C)(C)O)cn5ncc(C#N)c45)cn2)C3)cn1 [LOXO-292, reference compound] | – | 7.08 nM | – |
| COc1ccc(CN2C3CC2CN(c2cnc(-c4cc(OC(=O)N5CCOCC5)cn5ncc(C#N)c45)cn2)C3)cn1 [Compound 27, 3-cyano-4-(5-(6-((6-methoxypyridin-3-yl)methyl)-3,6-diazabicyclo[3.1.1]heptan-3-yl)pyrazin-2-yl]pyrazolo[1,5-a]pyridin-6-ylmorpholine-4-carboxylate] | – | – | IC50 (Wild-type RET kinase): 15.7 nM; GI50 (Ba/F3-KIF5B-RET cell; read-out: Ba/F3-KIF5B-RET cell activity, 72 h): 51.7 nM |
| COc1ccc(CN2CCN(c3ccc(-c4cc(-c5cnn(C)c5)cn5ncc(NC(C)=O)c45)cn3)CC2)cn1 [Compound 4, N-(4-(6-(4-((6-methoxypyridin-3-yl)methyl)piperazin-1-yl)pyridin-3-yl)-6-(1-methyl-1H-pyrazol-4-yl)pyrazol[1,5-a]pyridin-3-yl)acetamide] | 6590 nM | – | – |
| ethyl 4(6-(4-(6-methoxypyridin-3-yl)piperazin-1-yl)pyridin-3-yl)-6-(1-methyl-1H-pyrazol-4-yl)H-pyrazolo[1,5-a]pyridine-3-carboxylate [Compound 1] | 3.1 nM | 271 nM | – |
| COc1ccc(CN2C3CC2CN(c2ccc(-c4cc(NCC5CCCCC5)cn5ncc(C#N)c45)cn2)C3)cn1 [Compound 60, 6-((cyclohexylmethyl)amino)-4-(6-(6-((6-methoxypyridin-3-yl)methyl)-3,6-diazabicyclo[3.1.1]heptan-3-yl)pyridin-3-yl)pyrazolo[1,5-a]pyridine-3-carbonitrile] | 29.6 nM | – | – |
| COc1ccc(CN2CCN(c3ccc(-c4cc(-c5cnn(C)c5)cn5ncc(NC(=O)c6cncn6C)c45)cn3)CC2)cn1 [Compound 12, N-(4-(6-(4-((6-methoxypyridin-3-yl)methyl)piperazin-1-yl)pyridin-3-yl)-6-(1-methyl-1H-pyrazol-4-yl)pyrazolo[1,5-a]pyridin-3-yl)-1-methyl-1H-imidazole-5-carboxamide] | > 10000 nM | – | – |
| COc1ccc(CN2CCN(c3ccc(-c4cc(-c5cnn(C)c5)cn5ncc(C(=O)NC(C)C)c45)cn3)CC2)cn1 [Compound 5] | > 10000 nM | – | – |
| COc1ccc(CN2CCN(c3ccc(-c4cc(-c5cnn(C)c5)cn5ncc(NC(=O)c6ccccc6)c45)cn3)CC2)cn1 [Compound 11, N-(4-(6-(4-((6-methoxypyridin-3-yl)methyl)piperazin-1-yl)pyridin-3-yl)-6-(1-methyl-1H-pyrazol-4-yl)pyrazolo[1,5-a]pyridin-3-yl)benzamide] | > 10000 nM | – | – |
| CNC(=O)Nc1cnn2cc(-c3cnn(C)c3)cc(-c3ccc(N4CCN(Cc5ccc(OC)nc5)CC4)nc3)c12 [Compound 9, 1-(4-(6-(4-((6-methoxypyridin-3-yl)methyl)piperazin-1-yl)pyridin-3-yl)-6-(1-methyl-1H -pyrazol-4-yl)pyrazolo[1,5-a]pyridin-3-yl)-3-methylurea] | > 10000 nM | – | – |
| CNC(=O)c1cnn2cc(-c3cnn(C)c3)cc(-c3ccc(N4CCN(Cc5ccc(OC)nc5)CC4)nc3)c12 [Compound 6] | 678 nM | – | – |
| COc1ccc(CN2CCN(c3ccc(-c4cc(-c5cnn(C)c5)cn5ncc(NC(=O)C6CC6)c45)cn3)CC2)cn1 [Compound 10, N-(4-(6-(4-((6-methoxypyridin-3-yl)methyl)piperazin-1-yl)pyridin-3-yl)-6-(1-methyl-1H-pyrazol-4-yl)pyrazolo[1,5-a]pyridin-3-yl)cyclopropanecarboxamide] | > 10000 nM | – | – |
| CCNC(=O)c1cnn2cc(-c3cnn(C)c3)cc(-c3ccc(N4CCN(c5ccc(OC)nc5)CC4)nc3)c12 [Compound 3, N-ethyl-4-(6-(4-(6-methoxypyridin-3-yl)piperazin-1-yl)pyridin-3-yl)-6-(1-methyl-1H-pyridinoxazol-4-yl)H-pyrazolo[1,5-a]pyridine-3-carboxamide] | > 10000 nM | – | – |
| COc1ccc(CN2C3CC2CN(c2cnc(-c4cc(N(C)CCN(C)C)cn5ncc(C#N)c45)cn2)C3)cn1 [Compound 58, 6-((2-(dimethylamino)ethyl)(methyl)amino)-4-(5-(6-((6-methoxypyridin-3-yl)methyl)-3,6-diazabicyclo[3.1.1]heptan-3-yl)pyrazin-2-yl)pyrazolo[1,5-a]pyridine-3-carbonitrile] | 10.4 nM | – | – |

Further lines, with some results ahead:

| IC50 (Wild-type RET kinase; [1]) | GI50 (Ba/F3-KIF5B-RET cell; [2]) | Compound | other results |
| --- | --- | --- | --- |
| 0.72 nM | 192 nM | COc1ccc(CN2C3CC2CN(c2cnc(-c4cc(OCCN5CCC6(CCNC6)CC5)cn5ncc(C#N)c45)cn2)C3)cn1 [Compound 21] | – |
| 2.04 nM | 13.8 nM | COc1ccc(CN2C3CC2CN(c2cnc(-c4cc(OCCN5CC6(CCCO6)C5)cn5ncc(C#N)c45)cn2)C3)cn1 [Compound 34, 6-(2-(5-oxa-2-azaspiro[3.4]oct-2-yl)ethoxy)-4-(5-(6-((6-methoxypyridin-3-yl)methyl)-3,6-diazabicyclo[3.1.1]heptan-3-yl)pyrazin-2-yl)pyrazolo[1,5-a]pyridine-3-carbonitrile] | – |
| 1.1 nM | 203 nM | COc1ccc(CN2CCN(c3ccc(-c4cc(OCCN5CC6CC6C5)cn5ncc(C#N)c45)cn3)CC2)cn1 (stereo not shown) [Compound 16, 6-(2-(3-azabicyclo[3.1.0]hex-3-yl)ethoxy)-4-(6-(4-((6-methoxypyridin-3-yl)methyl)piperazin-1-yl)pyridin-3-yl)pyrazolo[1,5-a]pyridine-3-carbonitrile] | – |
| 0.5 nM | 123 nM | COc1ccc(CN2C3CC2CN(c2cnc(-c4cc(OCCN5CCC6NCCC6C5)cn5ncc(C#N)c45)cn2)C3)cn1 (stereo not shown) [Compound 18, 4-(5-(6-((6-methoxypyridin-3-yl)methyl)-3,6-diazabicyclo[3.1.1]hept-3-yl)pyrazin-2-yl)-6-(2-(octahydro-5H-pyrrolo[3,2-c]pyridin-5-yl)ethoxy)pyrazolo[1,5-a]pyridine-3-carbonitrile] | – |
| 2.89 nM | 27.7 nM | COc1ccc(CN2C3CC2CN(c2cnc(-c4cc(OCCN5CCC6(CCCO6)CC5)cn5ncc(C#N)c45)cn2)C3)cn1 [Compound 25, 6-(2-(1-oxa-8-azaspiro[4.5]dec-8-yl)ethoxy)-4-(5-(6-((6-methoxypyridin-3-yl)methyl)-3,6-diazabicyclo[3.1.1]heptan-3-yl)pyrazin-2-yl)pyrazolo[1,5-a]pyridine-3-carbonitrile] | – |
| 0.77 nM | 183 nM | COc1ccc(CN2C3CC2CN(c2cnc(-c4cc(OCCN5CC6(CCCNC6)C5)cn5ncc(C#N)c45)cn2)C3)cn1 [Compound 19, 6-(2-(2,6-diazaspiro[3.5]non-2-yl)ethoxy)-4-(5-(6-((6-methoxypyridin-3-yl)methyl)-3,6-diazabicyclo[3.1.1]heptan-3-yl)pyrazin-2-yl)pyrazolo[1,5-a]pyridine-3-carbonitrile] | – |
| 5.54 nM | – | COc1ccc(CN2C3CC2CN(c2cnc(-c4cc(NCC5CC5)cn5ncc(C#N)c45)cn2)C3)cn1 [Compound 53] | – |
| 2.63 nM | 19.1 nM | COc1ccc(CN2C3CC2CN(c2cnc(-c4cc(OCCN5CCC6(COC6)C5)cn5ncc(C#N)c45)cn2)C3)cn1 [Compound 20, 6-(2-(2-oxa-6-azaspiro[3.4]oct-6-yl)ethoxy)-4-(5-(6-((6-methoxypyridin-3-yl)methyl)-3,6-diazabicyclo[3.1.1]heptan-3-yl)pyrazin-2-yl)pyrazolo[1,5-a]pyridine-3-carbonitrile] | – |
| 2.76 nM | – | COc1ccc(CN2C3CC2CN(c2ccc(-c4cc(NCC5CCOCC5)cn5ncc(C#N)c45)cn2)C3)cn1 [Compound 54, 4-(6-(6-((6-methoxypyridin-3-yl)methyl)-3,6-diazabicyclo[3.1.1]heptyl-3-yl)pyridin-3-yl)-6-(((-2H-pyran-4-yl)methyl)amino)pyrazolo[1,5-a]pyridine-3-carbonitrile] | – |
| 6.05 nM | – | COc1ccc(CN2C3CC2CN(c2ccc(-c4cc(NCC5CCOC5)cn5ncc(C#N)c45)cn2)C3)cn1 (stereo not shown) [Compound 65, 4-(6-(6-((6-methoxypyridin-3-yl)methyl)-3,6-diazabicyclo[3.1.1]heptyl-3-yl)pyridin-3-yl)-6-(((tetrahydrofuran-3-yl)methyl)amino)pyrazolo[1,5-a]pyridine-3-carbonitrile] | – |
| 4.83 nM | – | COc1ccc(CN2C3CC2CN(c2ccc(-c4cc(NCC5CCN(C)CC5)cn5ncc(C#N)c45)cn2)C3)cn1 [Compound 64] | – |
